The values that follow come from patent US20230356105A1, “TETRAAZADODECANE BASED CHELATING AGENTS FOR SEPARATION OF RARE EARTH ELEMENTS AND METHOD THEREFOR” (Ustav Organicke Chemie a Biochemie AV CR V.V.I., priority 2020, published 2023).

The nature of this data set: Use of additives to improve separation of Nd/Dy mixture by precipitation with L5 (Example 18). Type of data set: physicochemical. As to conditions: 11 mM L5. Here is the method:
Stock solutions were pipetted into plastic 1×1 cm cuvettes to prepare reaction mixtures with concentrations as follows: • 1. […] 5 mM NdCl3 • 3. 5 mM DyCl3 • 4. 500 mM MOPS pH=7 • 5. the additive of interest, in a variable concentration; if possible, stock solutions were prepared from Na^+ salt forms of the compound; if not, the stock solutions were titrated by NaOH/HCl to pH=7 prior to addition (see Table 12 for additives and concentrations)
These aqueous reaction mixtures, each prepared to a total volume of 2.0 mL with the addition of water as necessary, were mixed by the use of a PTFE-coated stir bar on a magnetic stirrer. The cuvettes were sealed with transparent tape to prevent evaporation overnight. The reaction mixtures were stirred for 18 hours, at which point 500 μL aliquots of each reaction mixture were transferred into plastic 2 mL Eppendorf tubes and centrifuged. The supernatants were carefully pipetted out and transferred to a new set of tubes. The precipitate was dissolved by addition of 500 μL 1M HCl. The absolute concentration of Nd and Dy in each supernatant and precipitate was determined by ICP-OES.

`NCC(=O)O` [glycine]: for the setting “additive 50 mM”, the “Precipitate concentration [mM] Dy” value worked out at 3.60 mM, the “Precipitate concentration [mM] Nd” value turned out to be 4.90 mM, the “Supernatant concentration [mM] Dy” value worked out at 1.01 mM and the “Supernatant concentration [mM] Nd” value turned out to be 0.09 mM. Moreover, for the setting “additive 100 mM”, the “Precipitate concentration [mM] Dy” value turned out to be 2.79 mM, the “Precipitate concentration [mM] Nd” value is listed as 4.61 mM, the “Supernatant concentration [mM] Dy” value amounted to 1.99 mM and the “Supernatant concentration [mM] Nd” value is reported as 0.42 mM. Further, for the setting “additive 150 mM”, the “Precipitate concentration [mM] Dy” value turned out to be 2.44 mM, the “Precipitate concentration [mM] Nd” value is given as 4.91 mM, the “Supernatant concentration [mM] Dy” value stood at 2.25 mM and the “Supernatant concentration [mM] Nd” value is recorded as 0.11 mM. Also, where the note is “additive 200 mM”, the “Precipitate concentration [mM] Dy” value came to 1.86 mM, the “Precipitate concentration [mM] Nd” value stood at 4.69 mM, the “Supernatant concentration [mM] Dy” value was found to be 2.85 mM and the “Supernatant concentration [mM] Nd” value was found to be 0.28 mM.
Turning to `O=C(O)CO` [glycolate], for the setting “additive 5 mM”, the “Precipitate concentration [mM] Dy” value is 2.61 mM, the “Precipitate concentration [mM] Nd” value is reported as 4.64 mM, the “Supernatant concentration [mM] Dy” value is recorded as 1.73 mM and the “Supernatant concentration [mM] Nd” value is listed as 0.09 mM. For the same compound, where the note is “additive 10 mM”, the “Precipitate concentration [mM] Dy” value is reported as 1.71 mM, the “Precipitate concentration [mM] Nd” value is recorded as 4.92 mM, the “Supernatant concentration [mM] Dy” value is given as 2.93 mM and the “Supernatant concentration [mM] Nd” value is 0.20 mM. Where the note is “additive 15 mM”, the “Precipitate concentration [mM] Dy” value is reported as 1.11 mM, the “Precipitate concentration [mM] Nd” value is 4.54 mM, the “Supernatant concentration [mM] Dy” value turned out to be 3.13 mM and the “Supernatant concentration [mM] Nd” value came out at 0.35 mM. Moreover, where the note is “additive 20 mM”, the “Precipitate concentration [mM] Dy” value is on record as 0.82 mM, the “Precipitate concentration [mM] Nd” value was 4.33 mM, the “Supernatant concentration [mM] Dy” value was 3.82 mM and the “Supernatant concentration [mM] Nd” value worked out at 0.64 mM.
As for `C[C@H](O)C(=O)O` [l-lactate], under “additive 5 mM”, the “Precipitate concentration [mM] Dy” value turned out to be 3.15 mM, the “Precipitate concentration [mM] Nd” value was 4.33 mM, the “Supernatant concentration [mM] Dy” value stood at 1.59 mM and the “Supernatant concentration [mM] Nd” value is 0.51 mM. For the setting “additive 10 mM”, the “Precipitate concentration [mM] Dy” value was 2.08 mM, the “Precipitate concentration [mM] Nd” value was 4.49 mM, the “Supernatant concentration [mM] Dy” value is 2.47 mM and the “Supernatant concentration [mM] Nd” value is reported as 0.21 mM. Where the note is “additive 15 mM”, the “Precipitate concentration [mM] Dy” value turned out to be 1.60 mM, the “Precipitate concentration [mM] Nd” value was 4.38 mM, the “Supernatant concentration [mM] Dy” value came to 3.21 mM and the “Supernatant concentration [mM] Nd” value is on record as 0.49 mM. Where the note is “additive 20 mM”, the “Precipitate concentration [mM] Dy” value amounted to 1.18 mM, the “Precipitate concentration [mM] Nd” value is on record as 4.33 mM, the “Supernatant concentration [mM] Dy” value was found to be 3.57 mM and the “Supernatant concentration [mM] Nd” value came out at 0.50 mM.
As to `O=[N+]([O-])O` [nitrate], the “Precipitate concentration [mM] Dy” value was found to be 4.27 mM (additive 100 mM), 3.89 mM (additive 200 mM), 4.16 mM (additive 500 mM) and 3.23 mM (additive 1000 mM). For the same compound, the “Precipitate concentration [mM] Nd” value by setting is: (additive 100 mM) 4.39 mM; (additive 200 mM) 3.97 mM; (additive 500 mM) 4.46 mM; (additive 1000 mM) 4.61 mM. Moreover, the “Supernatant concentration [mM] Dy” value is given as 0.36 mM (additive 100 mM), 0.41 mM (additive 200 mM), 0.82 mM (additive 500 mM) and 1.72 mM (additive 1000 mM). Besides, the “Supernatant concentration [mM] Nd” value (additive 100 mM) turned out to be 0.14 mM, the “Supernatant concentration [mM] Nd” value (additive 200 mM) is 0.15 mM, the “Supernatant concentration [mM] Nd” value (additive 500 mM) came to 0.14 mM and the “Supernatant concentration [mM] Nd” value (additive 1000 mM) amounted to 0.15 mM.
